Measured values as given in publication PMC2880888 (Journal of medicinal chemistry, 2010).
Blank lines part the entries; values can stand above or below the compound they belong to.

What was measured:
[1] = tested on: control 1321N1 astrocytoma cells; experiment: calcium flux in control 1321N1 astrocytoma cells; type: cell-based, human; details: 10 µM, non-transfected 1321N1 astrocytoma cells
[2] = stability of the C-O-P bond in aqueous medium at pH 1.5; type: physicochemical; details: aqueous medium at pH 1.5, over 24 h
[3] = hydrolysis of the 5’-phosphate in the presence of mammalian cell membranes; type: in vitro ADME; details: incubation at 37°C with 1321N1 astrocytoma cell membranes (data not shown)
aorta ring preparations = details: cited from earlier work
CSQ-overexpressing mouse = details: Alzet mini-osmotic pump; cited from earlier work
cardiac P2X receptor = details: cited from earlier work

SMILES: CSc1nc(N)c2ncn([C@@H]3O[C@H](COP(=O)(O)OP(=O)(O)O)[C@@H](O)[C@H]3O)c2n1 [Compound 2-MeSADP, 2-MeSADP]
change in intracellular Ca2+ in control cells [1]: no change

stability of the C-O-P bond [2]: stable
hydrolysis of the 5’-phosphate [3]: considerable hydrolysis
SMILES: Nc1nc(Cl)nc2c1ncn2[C@H]1[C@H](O)[C@H](O)[C@@]2(COP(=O)(O)O)C[C@H]12 [Compound 3, (1’S,2’R,3’S,4’R,5’S)-4-(6-amino-2-chloro-9H-purin-9-yl)-1-[phosphoryloxymethyl] bicyclo[3.1.0]hexane-2,3-diol]
vasodilator action (aorta ring preparations): devoid of any vasodilator action
longevity compared to vehicle-injected mice (CSQ-overexpressing mouse): significantly increased longevity
current induced in the CSQ myocyte (cardiac P2X receptor; CSQ myocyte): induced a current

SMILES: CNc1nc(I)nc2c1ncn2[C@H]1C[C@H](OP(=O)(O)O)[C@]2(COP(=O)(O)O)C[C@H]12 [MRS2500]
block of the membrane current evoked by 3 (cardiac P2X receptor; voltage clamp in mouse cardiac myocytes): could not block
